Experiments:
S-Hyaluronan = experiment: Serum hyaluronan (HA-ELISA) in 4-week double-blind study; type: in vivo, human
Experimental: (§1) In order to assess the effects of HICA on type II collagen and hyaluronic acid in healthy adults in vivo a study was conducted, where fifteen healthy male athletes (age 21.3±2.8 yr) volunteered for the 4-week study with double-blind design (Table 1). They were randomized to two parallel groups. Subjects in Group 1 (n=8, age 22.8±4.6 yr, height 179±6 cm, weight 76.2±6.9 kg, fat % 14.1±3.7%) received 583.2 mg of sodium salt of HICA (corresponding 500 mg of HICA) thrice a day for 4 weeks, and those in Group 2 (n=7, age 21.3±3.0 yr, height 178±5 cm, weight 73.5±5.0 kg, fat % 11.1±3.0%) received placebo (650 mg of maltodextrin) thrice a day for the same period. The subjects and the controls received repacked substance of equal volume (1.5 ml) which they were advised to mix with liquid. The subjects and the controls kept physical training constant during the study period, and they kept training daily. Serum specimens were obtained at baseline and in the end of the treatment. Specimens were aliquoted and immediately frozen; serum was collected and frozen at −70° C.
Serum HA was measured by Hyaluronan Enzyme-Linked Immunosorbent Assay Kit, HA-ELISA (Echelon Biosciences Inc., Salt Lake City, USA). Intra- and interassay coefficients of variation of the serum HA assay were 3.2% and 4.42% respectively. The assay range was 15-1,000 ng/ml, the intraassay CV was <4%, the interassay CV was <6%. […]

[1] = molecular target: T1, recombinant human ADAMTS-5 (Homo sapiens, UniProt Q9UNA0); experiment: ADAMTS-5 mediated break down of aggrecan (SDS-PAGE, silver stain); type: biochemical; conditions: 10% racemic HICA, pH 7.4, incubation 2 d, FIG. 1 line 5
T1 construct: purchased Chemicon International Inc. CC1034
T1 sequence (Q9UNA0 262-930): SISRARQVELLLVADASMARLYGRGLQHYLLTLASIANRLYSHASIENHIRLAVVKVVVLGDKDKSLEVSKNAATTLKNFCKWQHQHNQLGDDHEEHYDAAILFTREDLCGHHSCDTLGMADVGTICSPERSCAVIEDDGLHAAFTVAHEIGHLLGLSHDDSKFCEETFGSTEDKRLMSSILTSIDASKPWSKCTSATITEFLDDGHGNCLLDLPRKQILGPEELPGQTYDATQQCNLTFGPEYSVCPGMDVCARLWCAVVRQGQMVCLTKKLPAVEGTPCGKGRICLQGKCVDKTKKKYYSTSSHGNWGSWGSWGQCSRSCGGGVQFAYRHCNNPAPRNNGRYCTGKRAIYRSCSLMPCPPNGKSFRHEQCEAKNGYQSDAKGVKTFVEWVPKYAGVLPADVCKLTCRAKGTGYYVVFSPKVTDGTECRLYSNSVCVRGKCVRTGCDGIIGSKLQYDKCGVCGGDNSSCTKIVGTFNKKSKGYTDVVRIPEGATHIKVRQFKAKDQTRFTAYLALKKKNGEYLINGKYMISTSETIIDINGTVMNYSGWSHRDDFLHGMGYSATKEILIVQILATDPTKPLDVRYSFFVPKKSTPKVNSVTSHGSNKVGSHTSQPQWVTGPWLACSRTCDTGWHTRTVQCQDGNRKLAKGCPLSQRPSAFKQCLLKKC
Experimental: As positive inhibitor controls Ilomastat (Ilo, CC1010, Millipore) and chlorhexidine (CHX, Corsodyl®, [2 mg/ml] (GlaxoSmithKline, Brøndby, Denmark) were used and 50 mM Tris-HCl-buffer (TNC): pH 7.5; 0.2 M NaCl; 1.0 mM CaCl2) was used as neutral assay buffer.
MMP-13 was preincubated 1 hour at 37° C. with p-aminophenylmercuric acetate (APMA, A9563, Sigma-Aldrich) to optimally activate (pro)MMP-13. As substrate, Aggrecan was added and then ADAMTS-5 or activated MMP-13 as catalytic/proteolytic enzyme and TNC, as neutral control, and 10% HICA, CHX or Ilo as protease/MMP-inhibitors let incubated together from 1 hour (h) to 2 days (d). The enzyme reactions terminated by boiling with modified Laemmli buffer. The samples were analysed by 8% SDS-PAGE and after electrophoresis the defragmentation of Aggrecan was visualised using Silver Stain Pierce®.
Sample with concentrations in lines: • 1. 0.25 μl molecular weight standards. Bio-Rad • 2. 4.2 μl Aggrecan (0.5 μg/μl) • 3. 4 μl ADAMTS-5 (0.1 μg/μl) • 4. 4.2 μl Aggrecan+4 μl ADAMTS-5+6 μl TNC-buffer. inc: 2d • 5. 4.2 μl Aggrecan+4 μl ADAMTS-5+6 μl 10% HICA. inc: 2d • 6. 4.2 μl Aggrecan+4 μl ADAMTS-5+6 μl CHX (2 mg/ml). inc: 2d • 7. 1 μl MMP-13 (0.2 μg/μl)+3 μl 2 mM APMA+6 μl TNC • 8. 4.2 μl Aggrecan+1 μl MMP-13 (0.2 μg/μl)+3 μl 2 mM APMA+6 μl TNC. inc: 1h • 9. 4.2 μl Aggrecan+1 μl MMP-13 (0.2 μg/μl)+3 μl 2 mM APMA+6 μl TNC. inc: 2d • 10. […]

[2] = system: type II collagen C2C neoepitope; experiment: Serum type II collagen C2C neoepitope (ELISA) in 4-week double-blind study; type: in vivo, human
Experimental: as §1
A kit for determination of the type II collagen C2C neoepitope was provided by Ibex Technologies (Montreal, Quebec, Canada). It was measured by means of an enzyme-linked immunosorbent assay (ELISA) (Kojima, Mwale et al. 2001). […]

inhibition of break down of Aggrecan by ADAMTS-5 [1]: inhibited the break down of Aggrecan
Compound: CC(C)CC(O)C(=O)O (racemic) [HICA, 2-hydroxy-4-methylpentanoic acid]
S-Hyaluronan after HICA (S-Hyaluronan; Mean ± SEM, n=8 healthy male athletes, sodium salt of HICA corresponding 500 mg HICA thrice a day for 4 weeks, before 202 ± 56, p = 0.066 vs placebo): 143 ± 19 ng/mL
decrease in serum HA concentration (S-Hyaluronan; during 4-week administration of HICA, placebo 10%, p=0.066 between the groups): 29%
S-C2C after HICA ([2]; Mean ± SEM, n=8 healthy male athletes, sodium salt of HICA corresponding 500 mg HICA thrice a day for 4 weeks, before 204 ± 14, p = 0.069 vs placebo): 189 ± 10 ng/mL
decrease in serum C2C ([2]; during 4-week administration of HICA, placebo 2%, p=0.069 between the groups): 8%

Source: patent US11793779B2, “Hica for use in prophylaxis and/or treatment of a disease or condition involving degradation of cartilage and/or disruption of cartilage homeostasis and/or integrity” (Salarusta Oy, priority 2020, dated 2023)
